According to patent US20240034736A1, “HSD17B13 INHIBITORS AND USES THEREOF” (FL2022-001, Inc., priority 2020, published 2024):

Biological target: Recombinant human HSD17B13 enzyme (Homo sapiens (Human), UniProt Q7Z5P4)
Assay: HSD17b13 NAD(P)H-Glo Biochemical Assay
Settings: 50 uM estradiol, 1 mM NAD+; read-out: HSD17β13 IC50
In short: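 Luminescent NAD(P)H-Glo detection (1 h, RT) quantified cofactor reduction after a 3 h, 37° C reaction of human HSD17B13 with estradiol (50 uM final) and NAD+ (1 mM final). Compounds were first pre-incubated 20 min at RT with enzyme in Tris pH 7.4 buffer containing Tween-20 and BSA.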

Chain of Recombinant human HSD17B13 enzyme (Q7Z5P4 20-300): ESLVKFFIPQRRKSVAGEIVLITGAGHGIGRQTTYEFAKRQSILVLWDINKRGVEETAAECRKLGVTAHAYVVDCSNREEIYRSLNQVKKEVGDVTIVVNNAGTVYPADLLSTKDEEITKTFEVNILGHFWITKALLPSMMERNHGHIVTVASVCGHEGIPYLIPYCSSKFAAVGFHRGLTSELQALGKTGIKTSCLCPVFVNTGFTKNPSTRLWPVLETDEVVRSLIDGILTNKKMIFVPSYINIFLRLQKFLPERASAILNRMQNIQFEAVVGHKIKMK

CS(=O)(=O)Nc1cccc(-c2ccc3c(cnn3-c3ccc(F)c(O)c3)c2)c1 [Compound 4.04, N-(3-(1-(4-Fluoro-3-hydroxyphenyl)-1H-indazol-5-yl)phenyl)methanesulfonamide] and Cc1cccc(-c2ccc3c(cnn3-c3ccc(F)c(O)c3)c2)c1 [Compound 4.08, 2-Fluoro-5-(5-(m-tolyl)-1H-indazol-1-yl)phenol] fall in the same range of IC50: 1000 to 30000 nM for the first, 1000 to 30000 nM for the second.

Cc1nn(-c2ccc(Cl)c(O)c2F)c2cc(F)c(N3CCN(S(C)(=O)=O)CC34CC4)cc12 [Compound 19.104, 6-Chloro-2-fluoro-3-(6-fluoro-3-methyl-5-(7-(methylsulfonyl)-4,7-diazaspiro[2.5]octan-4-yl)-1H-indazol-1-yl)phenol] and Cc1nn(-c2cc(C(F)(F)F)c(F)c(O)c2F)c2cc(F)c(N3CCN(S(C)(=O)=O)CC34CC4)cc12 [Compound 19.100, 2,6-Difluoro-3-(6-fluoro-3-methyl-5-(7-(methylsulfonyl)-4,7-diazaspiro[2.5]octan-4-yl)-1H-indazol-1-yl)-5-(trifluoromethyl)phenol] cannot be ordered by IC50: < 100 nM for the first, < 100 nM for the second.

First: CS(=O)(=O)N1CCN(c2cc3cnn(-c4cc(O)cc(C(F)(F)F)c4)c3cn2)CC1 [Compound 19.16, 3-(5-(4-(Methylsulfonyl)piperazin-1-yl)-1H-pyrazolo[3,4-c]pyridine-1-yl)-5-(trifluoromethyl)phenol]
Second: CS(=O)(=O)N1CCN(c2cc3cnn(-c4cc(O)c(F)c(F)c4)c3cn2)CC1 [Compound 21.40, 2,3-Difluoro-5-(5-(4-(methyl-sulfonyl)piperazin-1-yl)-1H-pyrazolo[3,4-c]pyridine-1-yl)-phenol]
The IC50 of the first is higher: 1000 to 30000 nM for the first, 100 to 1000 nM for the second.

First: Oc1ccc(-c2cc3cnn(-c4cc(O)c(F)c(F)c4)c3cc2Cl)c(Cl)c1 [Compound 4.17, 5-(6-Chloro-5-(2-chloro-4-hydroxyphenyl)-1H-indazol-1-yl)-2,3-difluorophenol]
Second: Oc1cc(F)cc(-n2ncc3cc(-c4ccc(O)c(Cl)c4)ccc32)c1 [Compound 3, 2-Chloro-4-(1-(3-fluoro-5-hydroxyphenyl)-1H-indazol-5-yl)phenol]
The IC50 of the first is lower: 100 to 1000 nM for the first, 1000 to 30000 nM for the second. The first is the more potent here.

Compared with Cc1nn(-c2cc(C(F)(F)F)c(F)c(O)c2F)c2cnc(N3CCNCC3)nc12 [Compound 19.118, 2,6-Difluoro-3-(3-methyl-5-(piperazin-1-yl)-1H-pyrazolo[4,3-d]pyrimidin-1-yl)-5-(trifluoromethyl)phenol], Cc1nn(-c2cc(C(F)(F)F)c(F)c(O)c2F)c2cnc(N3CCOC4(CC4)C3)nc12 [Compound 19.81, 2,6-Difluoro-3-(3-methyl-5-(4-oxa-7-azaspiro[2.5]octan-7-yl)-1H-pyrazolo[4,3-d]pyrimidin-1-yl)-5-(trifluoromethyl)phenol] is lower in IC50: 1000 to 30000 nM for the first, < 100 nM for the second.

Cc1ccc(-c2ccc3c(cnn3-c3ccc(F)c(O)c3)c2)cc1 [Compound 4.07, 2-Fluoro-5-(5-(p-tolyl)-1H-indazol-1-yl)phenol] and CNS(=O)(=O)c1ccc(-c2ccc3c(cnn3-c3ccc(F)c(O)c3)c2)cc1 [Compound 5.13, 4-(1-(4-Fluoro-3-hydroxyphenyl)-1H-indazol-5-yl)-N-methylbenzenesulfonamide] fall in the same range of IC50: 100 to 1000 nM for the first, 100 to 1000 nM for the second.

COc1ccc(-c2ccc3c(cnn3-c3cc(O)c(F)c(F)c3F)c2)cc1Cl [Compound 1.03, 5-(5-(3-Chloro-4-methoxyphenyl)-1H-indazol-1-yl)-2,3,4-trifluorophenol] and COc1ccc(-c2ccc3c(cnn3-c3cc(O)c(F)c(F)c3)c2)cn1 [Compound 7.01, 2,3-Difluoro-5-(5-(6-methoxypyridin-3-yl)-1H-indazol-1-yl)phenol] fall in the same range of IC50: 100 to 1000 nM for the first, 100 to 1000 nM for the second.

Oc1cc(-n2ncc3cc(-c4ccc(O)c(Cl)c4)ncc32)ccc1F [Compound 4.13, 2-Chloro-4-(1-(4-fluoro-3-hydroxyphenyl)-1H-pyrazolo[3,4-c]pyridine-5-yl)phenol] and Oc1cc(-n2ncc3cc(-c4ccc(O)c(Cl)c4)ccc32)ccc1F [Compound 5, 2-Chloro-4-(1-(4-fluoro-3-hydroxyphenyl)-1H-indazol-5-yl)phenol] fall in the same range of IC50: 100 to 1000 nM for the first, 100 to 1000 nM for the second.

Compared with CNC(=O)C1(c2ccc3c(cnn3-c3cc(O)c(F)c(F)c3)c2)CCN(S(C)(=O)=O)CC1 [Compound 29, 4-(1-(3,4-Difluoro-5-hydroxyphenyl)-1H-indazol-5-yl)-N-methyl-1-(methylsulfonyl)piperidine-4-carboxamide], CS(=O)(=O)C1CN(c2ccc3c(cnn3-c3cc(O)c(F)c(F)c3)c2)C1 [Compound 21.31, 2,3-Difluoro-5-(5-(3-(methyl-sulfonyl)azetidin-1-yl)-1H-indazol-1-yl)phenol] is lower in IC50: 1000 to 30000 nM for the first, 100 to 1000 nM for the second.

Cc1nn(-c2cc(C(F)(F)F)c(F)c(O)c2F)c2cnc(N3CCN(S(=O)(=O)c4cnn(C)c4)CC34CC4)cc12 [Compound 19.84, 2,6-Difluoro-3-(3-methyl-5-(7-((1-methyl-1H-pyrazol-4-yl)sulfonyl)-4,7-diazaspiro[2.5]octan-4-yl)-1H-pyrazolo[3,4-c]pyridin-1-yl)-5-(trifluoromethyl)phenol] and Cc1nn(-c2cc(C(F)(F)F)c(F)c(O)c2F)c2ccc(N3CCOCC34CC4)cc12 [Compound 19.94, 2,6-Difluoro-3-(3-methyl-5-(7-oxa-4-azaspiro[2.5]octan-4-yl)-1H-indazol-1-yl)-5-(trifluoromethyl)phenol] cannot be ordered by IC50: < 100 nM for the first, < 100 nM for the second.

CS(=O)(=O)N1CCN(c2cc3cn(-c4cc(O)cc(OC(F)(F)F)c4)nc3cn2)CC1 [Compound 19.13, 3-(5-(4-(Methylsulfonyl)piperazin-1-yl)-2H-pyrazolo[3,4-c]pyridin-2-yl)-5-(trifluoromethoxy)phenol] and CS(=O)(=O)N1CCN(c2ccc3nn(-c4cc(O)cc(C(F)(F)F)n4)cc3c2)CC1 [Compound 31.03, 2-(5-(4-(Methylsulfonyl)-piperazin-1-yl)-2H-indazol-2-yl)-6-(trifluoromethyl)-pyridin-4-ol] fall in the same range of IC50: 1000 to 30000 nM for the first, 1000 to 30000 nM for the second.

COCCOC1CCN(c2cc3c(C)nn(-c4cc(C(F)(F)F)c(F)c(O)c4F)c3cn2)CC1 [Compound 19.58, 2,6-Difluoro-3-(5-(4-(2-methoxyethoxy)piperidin-1-yl)-3-methyl-1H-pyrazolo[3,4-c]pyridin-1-yl)-5-(trifluoromethyl)phenol] and Cc1nn(-c2cc(C(F)(F)F)c(F)c(O)c2F)c2cc(F)c(N(C)C3CCOCC3)cc12 [Compound 19.68, 2,6-Difluoro-3-(6-fluoro-3-methyl-5-(methyl(tetrahydro-2H-pyran-4-yl)amino)-1H-indazol-1-yl)-5-(trifluoromethyl)phenol] cannot be ordered by IC50: < 100 nM for the first, < 100 nM for the second.

Cc1nn(-c2cc(O)c(F)cc2C#N)c2cnc(N(C)C3CCOCC3)cc12 [Compound 19.62, 5-Fluoro-4-hydroxy-2-(3-methyl-5-(methyl(tetrahydro-2H-pyran-4-yl)amino)-1H-pyrazolo[3,4-c]pyridin-1-yl)benzonitrile] and CC(C)c1nn(-c2cc(C(F)(F)F)c(F)c(O)c2F)c2ccc(N(C)C3CCOCC3)cc12 [Compound 19.74, 2,6-Difluoro-3-(3-isopropyl-5-(methyl(tetrahydro-2H-pyran-4-yl)amino)-1H-indazol-1-yl)-5-(trifluoromethyl)phenol] fall in the same range of IC50: 100 to 1000 nM for the first, 100 to 1000 nM for the second.

First: COC1CCN(c2cc3cnn(-c4cc(O)c(F)c(F)c4)c3cc2Cl)CC1 [Compound 21.21, 5-(6-Chloro-5-(4-methoxy-piperidin-1-yl)-1H-indazol-1-yl)-2,3-difluorophenol]
Second: CC(=O)N1CCC(Oc2ccc3c(cnn3-c3cc(O)c(F)c(F)c3)c2)CC1 [Compound 24, 1-(4-((1-(3,4-Difluoro-5-hydroxyphenyl)-1H-indazol-5-yl)oxy)piperidin-1-yl)ethan-1-one]
The IC50 of the first is lower: 100 to 1000 nM for the first, 1000 to 30000 nM for the second. The first is the more potent here.

First: Oc1cc(-n2ncc3cc(-c4ccc(N5CCOCC5)cc4Cl)ccc32)ccc1F [Compound 5.09, 5-(5-(2-Chloro-4-morpholinophenyl)-1H-indazol-1-yl)-2-fluorophenol]
Second: Oc1cc(-n2ncc3cc(-c4ccccc4Cl)ccc32)ccc1F [Compound 4.11, 5-(5-(2-Chlorophenyl)-1H-indazol-1-yl)-2-fluorophenol]
The IC50 of the first is higher: 1000 to 30000 nM for the first, 100 to 1000 nM for the second. The second is the more potent here.

COC(=O)c1nn(-c2cc(C(F)(F)F)c(F)c(O)c2F)c2ccc(N(C)C3CCOCC3)cc12 [Compound 19.88, Methyl 1-(2,4-difluoro-3-hydroxy-5-(trifluoromethyl)phenyl)-5-(methyl(tetrahydro-2H-pyran-4-yl)amino)-1H-indazole-3-carboxylate] and CC1(C)COCCN1c1cc2cnn(-c3cc(O)c(F)c(C(F)(F)F)c3)c2cn1 [Compound 19.32, 5-(5-(3,3-Dimethylmorpholino)-1H-pyrazolo[3,4-c]pyridine-1-yl)-2-fluoro-3-(trifluoromethyl)phenol] fall in the same range of IC50: 100 to 1000 nM for the first, 100 to 1000 nM for the second.

First: Oc1cc(-n2ncc3cc(N4CCC5(CC4)CC5)ncc32)cc(C(F)(F)F)c1F [Compound 21.44, 5-(5-(6-Azaspiro[2.5]octan-6-yl)-1H-pyrazolo[3,4-c]pyridine-1-yl)-2-fluoro-3-(trifluoro-methyl)phenol]
Second: O=S(=O)(NC1CN(c2cc3cnn(-c4cc(O)c(F)c(F)c4)c3cc2Cl)C1)c1ccccc1 [Compound 21.34, N-(1-(6-Chloro-1-(3,4-difluoro-5-hydroxyphenyl)-1H-indazol-5-yl)azetidin-3-yl)benzene-sulfonamide]
The IC50 of the first is lower: < 100 nM for the first, 100 to 1000 nM for the second.

COc1ccccc1-c1ccc2c(cnn2-c2ccc(F)c(O)c2)c1 [Compound 5.20, 2-Fluoro-5-(5-(2-methoxyphenyl)-1H-indazol-1-yl)phenol] showed an IC50 of 100 to 1000 nM.

Same assay, conditions: read-out: HSD17β13 inhibition at 30 uM

Point of comparison: CS(=O)(=O)N1CCN(c2cc3cn(-c4ccc(C#N)c(O)c4)nc3cn2)CC1 [Compound 19.37, 2-Hydroxy-4-(5-(4-(methylsulfonyl)piperazin-1-yl)-2H-pyrazolo[3,4-c]pyridine-2-yl)benzonitrile], inhibition at 30 µM 43%. Against it:
- Cc1cc(N2CCN(S(C)(=O)=O)CC2)cc2cnn(-c3cc(O)c(F)c(F)c3)c12 [Compound 21.17, 2,3-Difluoro-5-(7-methyl-5-(4-(methylsulfonyl)piperazin-1-yl)-1H-indazol-1-yl)phenol] — higher, 47%
